Common to all, as to test: biochemical
The target of one experiment is T1, α-1d adrenoreceptor (Rattus norvegicus, UniProt P23944).
T1 sequence (P23944 1-561): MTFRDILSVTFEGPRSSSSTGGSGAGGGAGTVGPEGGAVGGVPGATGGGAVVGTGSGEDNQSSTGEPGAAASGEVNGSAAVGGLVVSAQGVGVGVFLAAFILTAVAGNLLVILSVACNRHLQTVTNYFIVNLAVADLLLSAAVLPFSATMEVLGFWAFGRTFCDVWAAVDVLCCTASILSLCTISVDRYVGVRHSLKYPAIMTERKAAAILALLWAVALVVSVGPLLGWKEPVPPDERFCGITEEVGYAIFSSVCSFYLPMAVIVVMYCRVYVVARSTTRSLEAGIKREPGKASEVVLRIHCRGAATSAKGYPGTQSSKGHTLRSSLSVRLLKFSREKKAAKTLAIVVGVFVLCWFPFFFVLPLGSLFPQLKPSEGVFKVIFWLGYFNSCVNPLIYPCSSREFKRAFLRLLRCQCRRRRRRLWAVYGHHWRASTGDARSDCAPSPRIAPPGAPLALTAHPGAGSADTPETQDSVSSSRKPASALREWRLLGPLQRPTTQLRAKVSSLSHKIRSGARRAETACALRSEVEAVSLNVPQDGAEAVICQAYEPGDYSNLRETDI
The experiment is classed as binding. Conditions: read-out: Radioligand Binding (Ki, nM) 1d (Rat). The source says: (§1) The cDNA clones encoding the α-1 adrenoreceptors (α-1a, α-1b, and α-1d) were obtained from TULCO (Triangle Universities Licensing Consortium, Research Triangle Park, NC) and inserted into the eukaryotic expression vector SnaB30. In this vector, expression of the adrenoreceptor gene is under the transcriptional control of an SV40 early promoter. Positive drug selection is provided by a neomycin-resistance gene. Mouse fibroblast cells (LTK) were transfected with the α1 expression plasmids and grown in Dulbecco's modified Eagle's medium (DMEM) containing 10% fetal calf serum and 30 µM G418. Stable G418-resistant parental lines were generated, with successful expression of adrenoreceptor protein monitored using radioligand binding techniques. Stable single cell clones derived from the parental lines were screened in adrenoreceptor binding assays to identify clones having high adrenoreceptor density. Roller bottle cultures of the cloned lines were used to provide cell membranes for subsequent adrenoreceptor binding characterization studies. A cell line containing the SnaB30 vector expressing the human erythropoietin gene served as a negative control.
(§2) For adrenoreceptor binding assays, large scale membrane preparations were utilized in which 6 million cells were seeded into small (450 cm^2) Corning tissue culture roller bottles. 200 mL of DMEM containing 10% fetal calf serum and 300 µM G418 were added to each roller bottle. A 95% air / 5% CO2 gas mixture (sterile) was injected into each roller bottle prior to sealing. The bottles were then incubated at 37 °C on a roller rack for 5 days. Cells were re-fed with fresh medium after 3 days in culture.
(§3) On the fifth day of culture, growth medium was removed from cells grown in roller bottles, and the cells were washed twice with PBS (Sigma, 120 mM NaCl, 2.7 mM KCl, 10 mM Na2HPO4-NaH2PO4, pH = 7.4). Cells were detached from the roller bottles by incubating for 15 minutes at 37 °C in a Tris-EDTA solution (10 mM Tris, 100 mM NaCl, 1 mM EDTA, pH = 7.4). The cell suspension from each roller bottle was decanted into tared centrifuge tubes and kept on ice. An aliquot of each cell suspension was generally taken for cell counting. Cells were centrifuged at 3000 X G for 5 min at 2-4 °C, washed with PBS and recentrifuged. The supernatant was decanted and the pellet weighed to determine the wet weight of cells. Cells were washed a final time in 40 vol 5 mM Tris-HCl, 5 mM EDTA, pH = 7.7, and centrifuged at 40,000 X G for 10 minutes. Cells were homogenized in 10 mL of 50 mM Tris-HCl, 5 mM EDTA (pH = 7.4) and diluted to 40 mL/tube. Homogenates were centrifuged at 40,000 X G for 10 minutes. The supernatant was decanted and the pellets rehomogenized in 50 mM Tris-HCl (pH = 7.4) and centrifuged as before. The supernatant was decanted and the homogenate resuspended in 6.25 volumes (per gram wet weight) of 50 mM Tris-HCl and aliquots of the pooled homogenates frozen in liquid N2 and stored at -70 °C until the time of assay. Rat submaxillary glands were used for α-1A adrenoreceptors and were prepared essentially as described (Michel, A. D., Loury, D. N. and Whiting, R. L., Brit. J. Pharmacol. 98: 83-889 (1989)).
(§4) Receptor binding assays for α-1 adrenoreceptors were performed essentially as described by Greengrass and Bremner (Eur. J. Pharmacol. 55: 323-326 (1979)). […] Radioactivity was determined by standard liquid scintillation techniques. Data were analyzed as previously described (Hancock, A. A., Kyncl, J. J., Martin, Y. C. and DeBernardis, J. F., J. Receptor Res. 8: 23-46 (1988)).

Experiment [1] has as its target T2, α-1A adrenoreceptor (rat submaxillary gland) (Rattus norvegicus, UniProt P43140).
T2 sequence (P43140 1-466): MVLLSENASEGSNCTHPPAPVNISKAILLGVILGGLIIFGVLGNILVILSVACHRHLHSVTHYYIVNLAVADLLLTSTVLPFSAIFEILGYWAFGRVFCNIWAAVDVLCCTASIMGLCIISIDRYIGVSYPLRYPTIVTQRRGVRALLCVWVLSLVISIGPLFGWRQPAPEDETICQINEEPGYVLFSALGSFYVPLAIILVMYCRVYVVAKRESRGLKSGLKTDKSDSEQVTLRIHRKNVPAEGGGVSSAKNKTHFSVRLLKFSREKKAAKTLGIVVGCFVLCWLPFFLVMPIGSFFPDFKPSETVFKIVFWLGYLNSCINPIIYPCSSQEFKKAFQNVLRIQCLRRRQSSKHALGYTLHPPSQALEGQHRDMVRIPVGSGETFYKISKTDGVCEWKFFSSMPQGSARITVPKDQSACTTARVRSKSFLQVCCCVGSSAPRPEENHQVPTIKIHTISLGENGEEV
The format is binding. Conditions: read-out: Radioligand Binding (Ki, nM) 1A (Rat). As for the experimental part: Additionally, binding affinity against the pharrnacologically defined α-1A adrenoreceptor (rat submaxillary gland) was measured.
as §3, §4

For a further experiment, the target named is T3, α-1a adrenoreceptor (Bos taurus, UniProt P18130).
T3 sequence (P18130 1-466): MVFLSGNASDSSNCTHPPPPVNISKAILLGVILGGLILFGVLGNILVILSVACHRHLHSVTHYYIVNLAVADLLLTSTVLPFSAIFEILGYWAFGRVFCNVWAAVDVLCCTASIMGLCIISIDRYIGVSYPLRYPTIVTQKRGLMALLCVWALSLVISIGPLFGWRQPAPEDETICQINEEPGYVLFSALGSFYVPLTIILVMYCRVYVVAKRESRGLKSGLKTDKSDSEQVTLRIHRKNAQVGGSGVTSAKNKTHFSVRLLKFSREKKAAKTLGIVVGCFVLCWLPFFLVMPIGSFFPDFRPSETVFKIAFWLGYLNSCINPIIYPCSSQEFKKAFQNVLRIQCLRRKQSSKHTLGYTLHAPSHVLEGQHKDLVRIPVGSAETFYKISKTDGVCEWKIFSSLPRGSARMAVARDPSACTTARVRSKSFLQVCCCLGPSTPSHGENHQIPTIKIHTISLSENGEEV
The experiment is classed as binding, bovine. Conditions: read-out: Radioligand Binding (Ki, nM) 1a (Bovine).
Description: as §1, §2, §3, §4

Another experiment concerns the target T4, α-1b adrenoreceptor (Mesocricetus auratus, UniProt P18841).
T4 sequence (P18841 1-515): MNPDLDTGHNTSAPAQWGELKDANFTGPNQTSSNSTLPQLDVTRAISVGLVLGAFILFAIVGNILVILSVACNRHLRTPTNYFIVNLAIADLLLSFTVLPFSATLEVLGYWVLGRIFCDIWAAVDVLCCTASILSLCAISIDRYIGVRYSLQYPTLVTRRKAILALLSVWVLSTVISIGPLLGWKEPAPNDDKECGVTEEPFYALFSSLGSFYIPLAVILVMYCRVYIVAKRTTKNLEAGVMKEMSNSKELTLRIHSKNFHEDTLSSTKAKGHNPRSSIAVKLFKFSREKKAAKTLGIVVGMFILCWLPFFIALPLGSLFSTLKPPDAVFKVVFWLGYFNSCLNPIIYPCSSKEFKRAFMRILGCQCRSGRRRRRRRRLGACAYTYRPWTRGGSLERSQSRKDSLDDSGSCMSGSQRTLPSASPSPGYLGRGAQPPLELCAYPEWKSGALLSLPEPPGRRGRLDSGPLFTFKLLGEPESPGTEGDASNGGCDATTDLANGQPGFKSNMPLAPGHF
The experiment is classed as binding, hamster. The settings on record: read-out: Radioligand Binding (Ki, nM) 1b (Hamster).
Description: as §1, §2, §3, §4

Where [2] appears, read: [3H]-prazosin radioligand, cloned receptor in LTK cell membranes.
Where [3] appears, read: [3H]-prazosin radioligand, rat submaxillary gland membranes.

Where a name gives a salt, the structure may show the parent alone. Read-outs that look alike come from different tables or passages of the source.

In general, Ki refers to a dissociation constant, usually derived from enzyme kinetics or from competition with a known ligand. Take `COc1cc2[nH]c(=O)n(CCCCN3C[C@@H]4COc5cccc(OC)c5[C@@H]4C3)c(=O)c2cc1OC` (racemic) [Example 79, 3-[4-((±)-cis-9-Methoxy-1,2,3,3a,4,9b-hexahydro-[1]-benzopyrano[3,4-c]pyrrol-2-yl)butyl]-6,7-dimethoxy-quinazoline-2,4(1H,3H)-dione hydrochloride]: the Ki at α-1d adrenoreceptor worked out at 0.361 nM; in experiment [1], 0.199 nM; at α-1a adrenoreceptor it was 0.174 nM; at α-1b adrenoreceptor, 0.821 nM.

Regarding `COc1cc2[nH]c(=O)n(CCCCN3C[C@@H]4COc5ccccc5[C@H]4C3)c(=O)c2cc1OC` (racemic) [Example 80, 3-[4-((±)-trans-1,2,3,3a,4,9b-hexahydro-[1]-benzopyrano[3,4-c]pyrrol-2-yl)butyl]-6,7-dimethoxy-quinazoline-2,4(1H,3H)-dione hydrochloride], the Ki on α-1d adrenoreceptor was 0.765 nM; in experiment [1] it was 0.442 nM; on α-1a adrenoreceptor it was 0.17 nM; on α-1b adrenoreceptor, 2.5 nM.

As for `COc1cc2[nH]c(=O)n(CCCN3CC[C@H]4c5c(OC)cccc5OC[C@@H]4C3)c(=O)c2cc1OC` (racemic) [Example 83, 3-[3-(±)-trans-10-Methoxy-1,3,4,4a,5,10b-hexahydro-2H-[1]-benzopyrano[3,4-c]pyrido-3-yl)propyl]-6,7-dimethoxy-quinazoline-2,4(1H,3H)-dione hydrochloride], the Ki at α-1d adrenoreceptor (setting [2]) is 0.807 nM; in experiment [1] (setting [3]) it was 0.383 nM; on α-1a adrenoreceptor (setting [2]), 0.217 nM; on α-1b adrenoreceptor (setting [2]) it was 3.07 nM.

On to `COc1cc(O)cc2c1[C@@H]1CN(CCCCn3c(=O)[nH]c4c(sc5ncc(-c6ccccc6)nc54)c3=O)C[C@@H]1CO2` (relative stereo) [Example 104, 3-[4-(-cis-7-Hydroxy-9-methoxy-1,2,3,3a,4,9b-hexahydro-[1]-benzopyrano[3,4-c]pyrrol-2-yl)butyl]-8-phenyl-pyrazino[2',3':4,5]thieno[3,2-d]pyrimidine-2,4(1H,3H)-dione], for which the Ki turned out to be 5.2 nM on α-1d adrenoreceptor (setting [2]), 3.59 nM in experiment [1] (setting [3]), 0.427 nM on α-1a adrenoreceptor (setting [2]) and 266 nM at α-1b adrenoreceptor (setting [2]).

In the case of `COc1cccc2c1[C@H]1CN(CCCCn3c(=O)[nH]c4c(sc5cccnc54)c3=O)C[C@@H]1CO2` [Example 4, 3-[4-((3aR,9bS)-trans-9-Methoxy-1,2,3,3a,4,9b-hexahydro-[1]-benzopyrano[3,4-c]pyrrol-2-yl)butyl]-pyrido[2',3':4,5]thieno[3,2-d]pyrimidine-2,4(1H,3H)-dione hydrochloride], the Ki at α-1d adrenoreceptor (setting [2]) is 0.377 nM; in experiment [1] (setting [3]), 0.097 nM; at α-1a adrenoreceptor (setting [2]) it was 0.049 nM; at α-1b adrenoreceptor (setting [2]), 0.867 nM.

As for `COc1cccc2c1[C@H]1CN(CCCCn3c(=O)[nH]c4c(sc5c(Cl)ccnc54)c3=O)C[C@@H]1CO2` [Example 5, 3-[4-((3aR,9bS)-trans-9-Methoxy-1,2,3,3a,4,9b-hexahydro-[1]-benzopyrano[3,4-c]pyrrol-2-yl)butyl]-6-chloro-pyrido[2',3':4,5]thieno[3,2-d]pyrimidine-2,4(1H,3H)-dione dihydrochloride], the Ki on α-1d adrenoreceptor (setting [2]) was 0.638 nM; in experiment [1] (setting [3]), 0.268 nM; at α-1a adrenoreceptor (setting [2]), 0.086 nM; at α-1b adrenoreceptor (setting [2]), 2.01 nM.

Turning to `COc1cccc2c1[C@H]1CN(CCCCn3c(=O)[nH]c4c(sc5ccc(Cl)nc54)c3=O)C[C@@H]1CO2` [Example 6, 3-[4-((3aR,9bS)-trans-9-Methoxy-1,2,3,3a,4,9b-hexahydro-[1]-benzopyrano[3,4-c]pyrrol-2-yl)butyl]-8-chloro-pyrido[2',3':4,5]thieno[3,2-d]pyrimidine-2,4(1H,3H)-dione dihydrochloride], the Ki on α-1d adrenoreceptor (setting [2]) is 0.302 nM; in experiment [1] (setting [3]), 0.409 nM; at α-1a adrenoreceptor (setting [2]) it was 0.173 nM; at α-1b adrenoreceptor (setting [2]), 2 nM.
